According to patent US20100240924A1, “2-ETHYL-4,6-DIMETHYL-PHENYL-SUBSTITUTED TETRAMIC ACID DERIVATIVES AS PEST CONTROL AGENTS AND/OR HERBICIDES” (BAYER CROPSCIENCE AG, priority 2003, published 2010):

What was measured:
Avena sativa = assay: Herbicidal post-emergence action (Example A, greenhouse); type: in vivo; conditions: 320 g of a.i./ha
Description: (§1) Seeds of monocotyledonous and dicotyledonous weed and crop plants are placed into sandy loam in wood fibre pots, covered with soil and cultivated in a greenhouse under good growth conditions. 2-3 weeks after sowing, the test plants are treated at the one-leaf stage. The test compounds, formulated as wettable powders (WP), are, in various dosages with a water application rate of. 600 l/ha (converted), with 0.2% of wetting agent added, sprayed onto the green parts of the plants. After the test plants were kept in the greenhouse under optimum growth conditions for about 3 weeks, the effect of the preparations is rated visually in comparison to untreated controls (herbicidal effect in percent (%): 100% effect=the plants have died, 0% effect=like control plants).

Lolium = assay: as above; type: in vivo; conditions: 320 g of a.i./ha
Description: as §1

Setaria = assay: as above; type: in vivo; conditions: 320 g of a.i./ha
Description: as §1

Sinapis = assay: as above; type: in vivo; conditions: 320 g of a.i./ha, rated visually after about 3 weeks
Description: as §1

Stellaria = assay: as above; type: in vivo; conditions: 320 g of a.i./ha, rated visually after about 3 weeks
Description: as §1

[1] = system: larvae of the mustard beetle (Phaedon cochleariae); assay: Phaedon test (spray treatment); type: in vivo; conditions: 500 g/ha, spray treatment of Chinese cabbage discs
Description: [table] To produce a suitable preparation of active compound, 1 part by weight of active compound is mixed with the stated amounts of solvents and emulsifier, and the concentrate is diluted with emulsifier-containing water to the desired concentration. Discs of Chinese cabbage (Brassica pekinensis) are sprayed with a preparation of active compound of the desired concentration and, after they have dried, populated with larvae of the mustard beetle (Phaedon cochleariae).

[2] = system: greenhouse red spider mite (Tetranychus urticae); assay: Tetranychus test (OP-resistant/spray treatment); type: in vivo; conditions: 100 g/ha, OP-resistant, spray treatment of bean leaf discs
Description: To produce a suitable preparation of active compound, 1 part by weight of active compound is mixed with the stated amounts of solvents and emulsifier, and the concentrate is diluted with emulsifier-containing water to the desired concentration.
Discs of bean leaves (Phaseolus vulgaris) which are infested by all stages of the greenhouse red spider mite (Tetranychus urticae) are sprayed with a preparation of active compound of the desired concentration.
After the desired period of time, the activity in % is determined. 100% means that all spider mites have been killed; 0% means that none of the spider mites have been killed.

Summer barley = assay: Herbicidal post-emergence action, use of safeners, vessel trials with cereals in the greenhouse (Example B); conditions: in vivo
Description: (§2) Seeds of monocotyledonous and dicotyledonous weed and crop plants are placed into sandy loam in wood fibre pots or in plastic pots, covered with soil and cultivated in a greenhouse, during the vegetation period also outdoors outside of the greenhouse, under good growth conditions. 2-3 weeks after sowing, the test plants are treated at the one- to three-leaf stage. The test compounds, formulated as wettable powders (WP) or emulsifiable concentrates (EC) are, in various dosages with a water application rate of 300 l/ha (converted), with wetting agent (0.2 to 0.3%) added, sprayed onto the plants and the surface of the soil. 3-4 weeks after the treatment of the test plants, the effect of the preparations is rated visually in comparison to untreated controls (herbicidal effect in percent (%): 100% effect=the plants have died, 0% effect=like control plants). […]

Summer wheat = assay: as above; conditions: in vivo
Description: as §2

[3] = rated visually after about 3 weeks
[4] = rated visually after about 3 weeks (second table)

| SMILES | herbicidal effect in percent, Avena sativa (Avena sativa; [3]) [%] | herbicidal effect in percent, Lolium (Lolium; [3]) [%] | herbicidal effect in percent, Setaria (Setaria; [3]) [%] | herbicidal effect in percent, Avena sativa (Avena sativa; [4]) [%] | herbicidal effect in percent, Lolium (Lolium; [4]) [%] | herbicidal effect in percent, Setaria (Setaria; [4]) [%] | herbicidal effect in percent, Sinapis (Sinapis) [%] | further results |
| --- | --- | --- | --- | --- | --- | --- | --- | --- |
| CCc1cc(C)cc(C)c1C1=C(O)C(C)N(CC)C1=O (centres unmarked) [Example I-a-1] | 80 | 100 | 90 | – | – | – | – | – |
| CCc1cc(C)cc(C)c1C1=C(OC(=O)C(C)C)C(C)(C)NC1=O [Example I-b-2] | – | – | – | 100 | 100 | 100 | 70 | herbicidal effect in percent, Stellaria (Stellaria): 80% |
| CCc1cc(C)cc(C)c1C1=C(OC(=O)C(C)C)C(C)(C2CC2)NC1=O (centres unmarked) [Example I-b-10] | – | – | – | – | – | – | – | Kill rate in % after 5 d [1]: 100%; Kill rate in % after 5 d [2]: 90% |
| CCc1cc(C)cc(C)c1C1=C(OC(=O)C(C)C)C(CC)(CC)NC1=O [Example I-b-18] | – | – | – | – | – | – | – | Kill rate in % after 5 d [1]: 100%; Kill rate in % after 5 d [2]: 100% |
| CCOC(=O)OC1=C(c2c(C)cc(C)cc2CC)C(=O)N(CC)C1C (centres unmarked) [Example I-c-1] | 90 | 100 | 100 | – | – | – | – | – |
| CCOC(=O)OC1=C(c2c(C)cc(C)cc2CC)C(=O)NC1(C)C(C)C (centres unmarked) [Example I-c-3] | 90 | 100 | 90 | – | – | – | – | – |
| CCc1cc(C)cc(C)c1C1=C(O)CN(C2CC2)C1=O [I-a-3] | – | – | – | 80 | 100 | 90 | 70 | – |
| CCc1cc(C)cc(C)c1C1=C(O)C(C)(C(C)C)NC1=O (centres unmarked) [I-a′-2] | – | – | – | – | – | – | – | Summer barley observed (%) (Summer barley): 20%; Summer wheat observed (%) (Summer wheat): 25% |
| CCc1cc(C)cc(C)c1C1=C(OC(=O)C(C)(C)C)C(C)(C(C)C)NC1=O (centres unmarked) [I-b-3] | 90 | 70 | 80 | – | – | – | – | – |
| CCOC(=O)OC1=C(c2c(C)cc(C)cc2CC)C(=O)NC1(C)C [I-c-2] | – | – | – | 100 | 100 | 100 | 70 | herbicidal effect in percent, Stellaria (Stellaria): 70% |
